Drawing on patent US12077503B2, “Substituted cyclic amides and their use as herbicides” (FMC CORPORATION, priority 2015, dated 2024), this text covers melting point and pest or weed control for 5 compounds.

Read-outs that look alike come from different tables or passages of the source.

Data set [1] deals with barnyardgrass (Echinochloa crus-galli). Put plainly: Test A preemergence. Format: in vivo. The settings on record: Echinochloa crus-galli, pre-emergence, 240 h; for pest or weed control at 125 g/ha: 125 g ai/ha; for pest or weed control at 500 g/ha: 500 g ai/ha. The gist of the method: (§1)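 Seeded soil received test chemicals as a preemergence directed spray, and seedlings at one to two leaves, 2–10 cm tall, received them postemergence, in a non-phytotoxic, surfactant-containing solvent mixture. Pots were held in a greenhouse for approximately 10 d, then rated for injury from 0, no effect, to 100, complete control.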

Data set [2] relates to giant foxtail (Setaria faberii). Put plainly: Test A preemergence. Format: in vivo. The conditions noted are these: Setaria faberi, pre-emergence, 240 h; for pest or weed control at 125 g/ha: 125 g ai/ha; for pest or weed control at 500 g/ha: 500 g ai/ha. The gist of the method:
as §1

The test system of data set [3] is ragweed (common ragweed, Ambrosia elatior). Put plainly: Test A preemergence. The settings on record: Ambrosia artemisiifolia, pre-emergence, 240 h; for pest or weed control at 125 g/ha: 125 g ai/ha; for pest or weed control at 500 g/ha: 500 g ai/ha. It counts as in vivo. The gist of the method:
as §1

The test system of the next data set is Kochia (Kochia scoparia). Put plainly: Test A preemergence. The settings on record: Bassia scoparia, pre-emergence, 240 h; for pest or weed control at 125 g/ha: 125 g ai/ha; for pest or weed control at 500 g/ha: 500 g ai/ha. It counts as in vivo. The gist of the method:
as §1

Data set [4] concerns pigweed (Amaranthus retroflexus). Kind of data set: Test A preemergence. It counts as in vivo. The settings on record: Amaranthus retroflexus, pre-emergence, 240 h; for pest or weed control at 125 g/ha: 125 g ai/ha; for pest or weed control at 500 g/ha: 500 g ai/ha.
The subject of data set [5] is ryegrass, Italian (Italian ryegrass, Lolium multiflorum). Kind of data set: Test A preemergence. It counts as in vivo. The conditions noted are these: Lolium multiflorum, pre-emergence, 240 h; for pest or weed control at 125 g/ha: 125 g ai/ha; for pest or weed control at 500 g/ha: 500 g ai/ha. The gist of the method:
as §1

[6] abbreviates: preemergence, visual rating after approx. 10 d, 0 to 100 scale where 0 is no effect and 100 is complete control, read-out: Plant response rating, Barnyardgrass.
Where [7] appears, read: preemergence, visual rating after approx. 10 d, 0 to 100 scale where 0 is no effect and 100 is complete control, read-out: Plant response rating, Foxtail, Giant.
The mark [8] stands for this setting: preemergence, visual rating after approx. 10 d, 0 to 100 scale where 0 is no effect and 100 is complete control, read-out: Plant response rating, Ragweed.
Where [9] appears, read: preemergence, visual rating after approx. 10 d, 0 to 100 scale where 0 is no effect and 100 is complete control, read-out: Plant response rating, Kochia.
Where [10] appears, read: preemergence, visual rating after approx. 10 d, 0 to 100 scale where 0 is no effect and 100 is complete control, read-out: Plant response rating, Pigweed.
The mark [11] stands for this setting: preemergence, visual rating after approx. 10 d, 0 to 100 scale where 0 is no effect and 100 is complete control, read-out: Plant response rating, Ryegrass, Italian.
Where [12] appears, read: preemergence, 0 to 100 scale (0 no effect, 100 complete control), read-out: Plant response rating, Barnyardgrass.
Where [13] appears, read: Preemergence, 0 to 100 scale (0 no effect, 100 complete control), read-out: Plant response rating, Barnyardgrass.
Where [14] appears, read: preemergence, 0 to 100 scale (0 no effect, 100 complete control), read-out: Plant response rating, Foxtail, Giant.
[15] abbreviates: Preemergence, 0 to 100 scale (0 no effect, 100 complete control), read-out: Plant response rating, Foxtail, Giant.
Where [16] appears, read: preemergence, 0 to 100 scale (0 no effect, 100 complete control), read-out: Plant response rating, Ragweed.
Where [17] appears, read: Preemergence, 0 to 100 scale (0 no effect, 100 complete control), read-out: Plant response rating, Ragweed.
Where [18] appears, read: preemergence, 0 to 100 scale (0 no effect, 100 complete control), read-out: Plant response rating, Kochia.
[19] abbreviates: Preemergence, 0 to 100 scale (0 no effect, 100 complete control), read-out: Plant response rating, Kochia.
[20] abbreviates: preemergence, 0 to 100 scale (0 no effect, 100 complete control), read-out: Plant response rating, Pigweed.
The mark [21] stands for this setting: Preemergence, 0 to 100 scale (0 no effect, 100 complete control), read-out: Plant response rating, Pigweed.
Where [22] appears, read: preemergence, 0 to 100 scale (0 no effect, 100 complete control), read-out: Plant response rating, Ryegrass, Italian.
Where [23] appears, read: Preemergence, 0 to 100 scale (0 no effect, 100 complete control), read-out: Plant response rating, Ryegrass, Italian.

For `CN1C[C@H](c2nccs2)[C@@H](C(=O)Nc2ccccc2F)C1=O` [Compound 773], the melting point – broadly, the temperature, or range, at which the solid turns liquid – lay within 69.5 to 77 °C. Besides, in data set [1] (setting [6]), the pest or weed control at 125 g/ha turned out to be 0%. The pest or weed control at 500 g/ha in data set [1] (preemergence, 0 to 100 scale, 0 = no effect, 100 = complete control, read-out: Plant response rating, Barnyardgrass) was 0%. In addition, the pest or weed control at 125 g/ha in data set [2] (setting [7]) was found to be 0%. Further, the pest or weed control at 500 g/ha in data set [2] (preemergence, 0 to 100 scale, 0 = no effect, 100 = complete control, read-out: Plant response rating, Foxtail, Giant) stood at 0%. For the same compound, the pest or weed control at 125 g/ha in data set [3] (setting [8]) stood at 0%. In data set [3] (preemergence, 0 to 100 scale, 0 = no effect, 100 = complete control, read-out: Plant response rating, Ragweed), the pest or weed control at 500 g/ha was determined as 0%. Further, the pest or weed control at 125 g/ha with Kochia (Kochia scoparia) (setting [9]) turned out to be 0%. In addition, the pest or weed control at 500 g/ha in the data set with Kochia (Kochia scoparia) (preemergence, 0 to 100 scale, 0 = no effect, 100 = complete control, read-out: Plant response rating, Kochia) came out at 0%. Further, the pest or weed control at 125 g/ha in data set [4] (setting [10]) came out at 0%. The pest or weed control at 500 g/ha in data set [4] (preemergence, 0 to 100 scale, 0 = no effect, 100 = complete control, read-out: Plant response rating, Pigweed) came out at 0%. Moreover, the pest or weed control at 125 g/ha in data set [5] (setting [11]) stood at 0%.

As for `CN1C[C@H](c2nccs2)[C@@H](C(=O)Nc2cccc(F)c2F)C1=O` [Compound 774], the melting point is 133.9 to 140.7 °C. The pest or weed control at 125 g/ha in data set [1] (setting [6]) was 0%. Also, the pest or weed control at 500 g/ha in data set [1] (Preemergence, visual injury vs untreated controls after approximately 10 d, read-out: Barnyardgrass plant response rating (0 to 100 scale where 0 is no effect and 100 is complete control)) came to 0%. Besides, in data set [2] (setting [7]), the pest or weed control at 125 g/ha was found to be 0%. Further, in data set [2] (Preemergence, visual injury vs untreated controls after approximately 10 d, read-out: Foxtail, Giant plant response rating (0 to 100 scale where 0 is no effect and 100 is complete control)), the pest or weed control at 500 g/ha is 0%. In addition, the pest or weed control at 125 g/ha in data set [3] (setting [8]) is 0%. For the same compound, the pest or weed control at 500 g/ha in data set [3] (Preemergence, visual injury vs untreated controls after approximately 10 d, read-out: Ragweed plant response rating (0 to 100 scale where 0 is no effect and 100 is complete control)) worked out at 0%. Further, the pest or weed control at 125 g/ha in the data set with Kochia (Kochia scoparia) (setting [9]) was 0%. The pest or weed control at 500 g/ha in the data set on Kochia (Kochia scoparia) (Preemergence, visual injury vs untreated controls after approximately 10 d, read-out: Kochia plant response rating (0 to 100 scale where 0 is no effect and 100 is complete control)) came to 0%. Moreover, the pest or weed control at 125 g/ha in data set [4] (setting [10]) amounted to 0%. Further, the pest or weed control at 500 g/ha in data set [4] (Preemergence, visual injury vs untreated controls after approximately 10 d, read-out: Pigweed plant response rating (0 to 100 scale where 0 is no effect and 100 is complete control)) came out at 0%. In addition, the pest or weed control at 125 g/ha in data set [5] (setting [11]) was 0%. For the same compound, in data set [5] (Preemergence, visual injury vs untreated controls after approximately 10 d, read-out: Ryegrass, Italian plant response rating (0 to 100 scale where 0 is no effect and 100 is complete control)), the pest or weed control at 500 g/ha came out at 0%.

On to `Cc1ccccc1NC(=O)[C@H]1C(=O)N(C)C[C@@H]1c1ccc(C(F)(F)F)cc1` [Compound 1239], for which the melting point was 123 to 127 °C. Moreover, in data set [1] (preemergence, visual injury rating, 0 to 100 scale where 0 is no effect and 100 is complete control, approximately 10 d, read-out: Barnyardgrass plant response rating), the pest or weed control at 125 g/ha is 80%. Further, the pest or weed control at 500 g/ha in data set [1] (preemergence, 0 to 100 scale where 0 is no effect and 100 is complete control, read-out: Barnyardgrass plant response rating) was 90%. Also, the pest or weed control at 125 g/ha in data set [2] (preemergence, visual injury rating, 0 to 100 scale where 0 is no effect and 100 is complete control, approximately 10 d, read-out: Foxtail, Giant plant response rating) is 90%. Besides, the pest or weed control at 500 g/ha in data set [2] (preemergence, 0 to 100 scale where 0 is no effect and 100 is complete control, read-out: Foxtail, Giant plant response rating) amounted to 90%. In data set [3] (preemergence, visual injury rating, 0 to 100 scale where 0 is no effect and 100 is complete control, approximately 10 d, read-out: Ragweed plant response rating), the pest or weed control at 125 g/ha came to 0%. Besides, the pest or weed control at 500 g/ha in data set [3] (preemergence, 0 to 100 scale where 0 is no effect and 100 is complete control, read-out: Ragweed plant response rating) stood at 70%. In the data set on Kochia (Kochia scoparia) (preemergence, visual injury rating, 0 to 100 scale where 0 is no effect and 100 is complete control, approximately 10 d, read-out: Kochia plant response rating), the pest or weed control at 125 g/ha worked out at 90%. Moreover, the pest or weed control at 125 g/ha in data set [4] (preemergence, visual injury rating, 0 to 100 scale where 0 is no effect and 100 is complete control, approximately 10 d, read-out: Pigweed plant response rating) amounted to 20%. In addition, the pest or weed control at 500 g/ha in data set [4] (preemergence, 0 to 100 scale where 0 is no effect and 100 is complete control, read-out: Pigweed plant response rating) was 60%. Also, the pest or weed control at 125 g/ha in data set [5] (preemergence, visual injury rating, 0 to 100 scale where 0 is no effect and 100 is complete control, approximately 10 d, read-out: Ryegrass, Italian plant response rating) is 50%. The pest or weed control at 500 g/ha in data set [5] (preemergence, 0 to 100 scale where 0 is no effect and 100 is complete control, read-out: Ryegrass, Italian plant response rating) is 50%.

As to `C=CCOc1cccc(C2CN(C)C(=O)C2C(=O)Nc2ccccc2F)c1` (stereo not drawn) [Compound 1329], the melting point fell in the range of 81 to 84 °C. In addition, in data set [1] (setting [12]), the pest or weed control at 500 g/ha is 100%. The pest or weed control at 125 g/ha in data set [1] (setting [13]) came to 90%. In addition, the pest or weed control at 500 g/ha in data set [2] (setting [14]) was determined as 90%. Further, in data set [2] (setting [15]), the pest or weed control at 125 g/ha was found to be 90%. Also, the pest or weed control at 500 g/ha in data set [3] (setting [16]) was 20%. For the same compound, the pest or weed control at 125 g/ha in data set [3] (setting [17]) was determined as 0%. Further, in the data set on Kochia (Kochia scoparia) (setting [18]), the pest or weed control at 500 g/ha turned out to be 50%. In addition, in the data set on Kochia (Kochia scoparia) (setting [19]), the pest or weed control at 125 g/ha turned out to be 50%. The pest or weed control at 500 g/ha in data set [4] (setting [20]) amounted to 30%. For the same compound, the pest or weed control at 125 g/ha in data set [4] (setting [21]) was determined as 0%. The pest or weed control at 500 g/ha in data set [5] (setting [22]) was 40%. For the same compound, the pest or weed control at 125 g/ha in data set [5] (setting [23]) was found to be 0%.

In turn, `CN1CC[C@H](c2cccc(C(F)(F)F)c2)[C@@H](C(=O)Nc2cccc(F)c2F)C1=O` [Compound 1330] gave a melting point of 54 to 57 °C. Besides, in data set [1] (setting [12]), the pest or weed control at 500 g/ha stood at 90%. Besides, the pest or weed control at 125 g/ha in data set [1] (setting [13]) was 90%. In addition, the pest or weed control at 500 g/ha in data set [2] (setting [14]) came to 90%. Moreover, the pest or weed control at 125 g/ha in data set [2] (setting [15]) was 90%. The pest or weed control at 500 g/ha in data set [3] (setting [16]) was determined as 50%. For the same compound, the pest or weed control at 125 g/ha in data set [3] (setting [17]) was 0%. In the data set on Kochia (Kochia scoparia) (setting [18]), the pest or weed control at 500 g/ha came out at 90%. In the data set on Kochia (Kochia scoparia) (setting [19]), the pest or weed control at 125 g/ha amounted to 20%. The pest or weed control at 500 g/ha in data set [4] (setting [20]) came to 0%. Moreover, the pest or weed control at 125 g/ha in data set [4] (setting [21]) amounted to 0%. Also, the pest or weed control at 500 g/ha in data set [5] (setting [22]) was determined as 50%. Also, the pest or weed control at 125 g/ha in data set [5] (setting [23]) is 50%.
